Laboratory results published in US20060293386A1, “Method for treating cancer” (priority 2005, published 2006).
Several values for one entry are separate records, joined by “and”; a condition that tells them apart may be missing. Equal entries are not always repeated. Entries after “also recorded” stand apart in the source; their conditions may differ. Where two headings read alike, the source gives them in different places.

What was measured:
[1] = system: HCC (hepato cellular carcinoma); experiment: Transition of AFP (tumor marker) values in GM-administered HCC patients; type: in vivo; conditions: for Average AFP value: GM-administered HCC group with abnormal AFP values; for Effect on AFP values (in words): GM-administered HCC patients, 100-300 mg intravenous drip infusion
Description: (§1) AFP (Alpha-fetoprotein) and PIVKA-II (isomer of prothrombin) were used as tumor markers of HCC. […] In general, it is often difficult to determine the shrinkage of cancer lesions by CT scanning or echo imaging immediately after conducting TAE, therefore these markers are used to determine the effects. In Japan, the conventional Alpha-feto Riabeads method has been replaced by the Chemilumi ACS-AFP method since May 2004. The former is a radiation immunoassay whose standard value is ≦20. Meanwhile, the latter is a chemiluminescence immunoassay whose standard value is ≦10.
HCC patients and AFP-positive (precancerous lesions or regenerating hepatocytes) patients without HCC observed on the images ([…] as “GM”) dissolved in 150-300 ml of physiological saline or of 5% glucose by intravenous drip infusion. GM is originally a drug applicable to chronic pancreatitis, acute pancreatitis, and DIC (disseminated intravascular coagulation), however, informed consent was obtained before the administration. And in allergy cases, the starting dose was 75-100 mg and increased. The nonadministered group is GM-nonadministered HCC cases.
In general, AFP and PIVKA-II values are considered to represent cancer viability in hepato cellular carcinoma cases. GM is considered to suppress the viability, since GM suppresses AFP and PIVKA-II values. […]
As described above, GM administration after TAE was conducted 10 days after TAE was completed. And GM was considered effective if suppression was observed 4 months after TAE was completed.

[2] = system: HCC (hepato cellular carcinoma); experiment: Transition of PIVKA-II (tumor marker) values in GM-administered HCC patients; type: in vivo
Description: as §1
HCC patients and AFP-positive (precancerous lesions or regenerating hepatocytes) patients without HCC observed on the images (on CT or echo exam) were given 100-300 mg of gabexate mesilate (hereinafter referred to as “GM”) dissolved in 150-300 ml of physiological saline or of 5% glucose by intravenous drip infusion. GM is originally a drug applicable to chronic pancreatitis, acute pancreatitis, and DIC (disseminated intravascular coagulation), however, informed consent was obtained before the administration. And in allergy cases, the starting dose was 75-100 mg and increased. The nonadministered group is GM-nonadministered HCC cases.
In general, AFP and PIVKA-II values are considered to represent cancer viability in hepato cellular carcinoma cases. […]

[3] = Side effects of GM among 22 cases; type: in vivo, patients; conditions: among 22 cases including pancreatic disease cases
Description: Side effects of GM used in the present invention already include shock, anaphylaxis, bleeding tendency, granulocytopenia, fall in blood pressure, elevation of GOT and GPT, facial flushing and the like; among 22 cases including pancreatic disease cases, shock: 0 case, anaphylaxis: 3 cases, bleeding tendency: 0 case, slight granulocytopenia: 22 cases, significant fall in blood pressure: 0 case, elevation of GOT and GPT: 2 cases, and withdrawal: 0.

Structure (SMILES): CCOC(=O)c1ccc(OC(=O)CCCCCN=C(N)N)cc1.CS(=O)(=O)O [GM, gabexate mesilate]
- Maximum AFP value ([1]; 0 M, GM-administered HCC group): 18.9 ng/mL
- Minimum AFP value ([1]; 0 M, GM-administered HCC group): 6.5
- Average AFP value ([1]; 0 M, 7 cases): 11.1 ± 4.8 and 11.1
- AFP value ([1]; 0 M, individual GM-administered HCC patient, Chemilumi ACS-AFP method): 18.9 and 15.5 and 8.1 and 7.2 and 8.5 and 6.5 and 13.0
- Increase and decrease in AFP value, Δ 1 M ([1]; 1 M versus 0 M, individual GM-administered HCC patient): −2.7 and −1.3 and 3.6 and 2.4 and 3.3 and 0.3 and −3.4
- Average difference of AFP from the value at 0M ([1]; 1 M, GM-administered HCC group): 0.3 and 0.3143
- Maximum AFP value ([1]; 1 M, GM-administered HCC group): 19.2 ng/mL
- Minimum AFP value ([1]; 1 M, GM-administered HCC group): 5.4
- Significant difference of AFP versus 0M ([1]; 1 M, GM-administered HCC group): none
- Average AFP value ([1]; 1 M, 7 cases): 11.4 ± 5.1 and 11.4
- AFP value ([1]; 1 M, individual GM-administered HCC patient, Chemilumi ACS-AFP method): 19.2 and 12.1 and 5.4 and 5.9 and 8.9 and 16.3
- Increase and decrease in AFP value, Δ 2 M ([1]; 2 M versus 0 M, individual GM-administered HCC patient): −1.4 and 3.1 and −0.3 and 2.2 and 1.5 and −6.8
- Maximum AFP value ([1]; 2 M, GM-administered HCC group): 20.4 ng/mL
- Minimum AFP value ([1]; 2 M, GM-administered HCC group): 5.8
- Significant difference of AFP versus 0M ([1]; 2 M, GM-administered HCC group): none
- Average AFP value ([1]; 2 M, 6 cases): 11.3 ± 5.7 and 11.3
- AFP value ([1]; 2 M, individual GM-administered HCC patient, Chemilumi ACS-AFP method): 20.4 and 8.7 and 5.8 and 11.6 and 6.2 and 15.2
- Increase and decrease in AFP value, Δ 3 M ([1]; 3 M versus 0 M, individual GM-administered HCC patient): −3 and −3.2 and 5.1 and 0.2 and 3.7 and 4.1 and −9.4
- Maximum AFP value ([1]; 3 M, GM-administered HCC group): 23 ng/mL
- Minimum AFP value ([1]; 3 M, GM-administered HCC group): 4.0
- Significant difference of AFP versus 0M ([1]; 3 M, GM-administered HCC group): none
- Average AFP value ([1]; 3 M, 7 cases): 10.7 ± 7.2 and 10.7
- AFP value ([1]; 3 M, individual GM-administered HCC patient, Chemilumi ACS-AFP method): 23.0 and 6.1 and 5.1 and 4.0 and 13.6 and 6.7 and 16.7
- AFP value ([1]; 3rd case of TABLE 2, 20 mg of GM, when HCC was roughly diagnosed by contrast CT): 8-9
- Current AFP value ([1]; 4th case of TABLE 2, 200 mg of GM after TAE): around 7
- Highest AFP value reached ([1]; 4th case of TABLE 2, GM reduced to 75-100 mg because of allergy, before TAE): up to 70
- Statistical difference of AFP between each month and 0M (in words) ([1]; GM-administered HCC patients of TABLE 2): no significant difference
- Effect on AFP values (in words) [1]: the elevation of AFP values was suppressed; also recorded: elevation of PIVKA-II and AFP values was not observed
- Effect on AFP values (in words) ([1]; listed as gabexate mesilate): dropped, or their elevation was suppressed; also recorded: suppressed the elevation of AFP values for a prolonged period
- Number of times of effective GM administrations after TAE ([1]; cases of TABLE 2, effective if suppression observed 4 months after TAE): 6
- Current AFP value ([1]; first case of TABLE 2, person, GM 200-300 mg with repeated TAE): 9.0
- Number of times of effective GM administrations, single GM administration ([1]; single GM-administered cases including 4 cases with abnormal AFP values of unknown etiology, effective if markers suppressed in one month): 7
- Effect on PIVKA-II values (in words) [2]: elevation of PIVKA-II and AFP values was not observed
- Effect on PIVKA-II values (in words) ([2]; listed as gabexate mesilate): dropped, or their elevation was suppressed
- Side effect: anaphylaxis [3]: 3 cases
- Side effect: bleeding tendency [3]: 0 case
- Side effect: elevation of GOT and GPT [3]: 2 cases
- Side effect: shock [3]: 0 case
- Side effect: significant fall in blood pressure [3]: 0 case
- Side effect: slight granulocytopenia [3]: 22 cases
- Withdrawal [3]: 0
